Format in all cases: cell-based
In test [1] the test system is K. pneumoniae.
The subject of test [2] is S. aureus.
The test system of test [3] is E. faecalis.
Test [4] has as its system E. cloacae.
For test [5], the system named is E. faecium.
For test [6], the system named is S. maltophilia.
For test [7], the system named is P. aeruginosa.
The test system of test [8] is S. marcescens.
Test [9] relates to E. coli.
Test [10] has as its system A. calcoaceticus.
The subject of test [11] is inherently resistant microorganisms. The test can be described thus: microbe, parasite or virus in culture. Particulars: P. aeruginosa.
Test [12] relates to S. epidermidis. Particulars: S. epidermidis SE010.
Test [13] deals with bacterial isolates. The test can be described thus: microbe, parasite or virus in culture. To be noted: for Peptide MIC Alone: 2. Ceftriaxone; for FIC: peptide + Ceftriaxone.
Test [14] deals with microorganisms with acquired resistance. Nature of the test: microbe, parasite or virus in culture. To be noted: for Peptide MIC Alone: Ceftriaxone section; for FIC: peptide + Ceftriaxone.

Like-named read-outs stand apart in the source and are kept apart here. A value given as a limit tells only on which side of the number the result lay.

The MIC is the lowest concentration found to suppress growth. For ILKKPWWPWRRK [MBI 11G3CN], the MIC in [1] (K. pneumoniae strain KP001) is over 128 µg/mL; in [2] (S. aureus strain SA009), 8 µg/mL; in [3] (E. faecalis strain EFS002) it was 64 µg/mL; in test [4] (E. cloacae strain ECL007) it was over 128 µg/mL; in test [5] (E. faecium strain EFM002), 32 µg/mL; in test [6] (S. maltophilia strain SMA001) it was over 128 µg/mL. In addition, the MIC is over 128 µg/mL in [7] (P. aeruginosa strain PA003), over 128 µg/mL in [8] (S. marcescens strain SMS004) and 64 µg/mL in [9] (E. coli strain ECO003).
ILKKWPWWPWRRKMILKKAGS [MBI 11D4CN]: the MIC in test [1] (K. pneumoniae strain KP002) was over 64 µg/mL; in test [2] (S. aureus strain SA009) it was 4 µg/mL; in test [3] (E. faecalis strain EFS002), 16 µg/mL; in [4] (E. cloacae strain ECL007) it was over 64 µg/mL; in test [5] (E. faecium strain EFM002), 1 µg/mL; in test [6] (S. maltophilia strain SMA001) it was over 64 µg/mL. In addition, the minimal inhibitory concentration (MIC) in [7] (P. aeruginosa strain PA004) is over 64 µg/mL; in test [8] (S. marcescens strain SMS004) it was over 64 µg/mL; in [10] (A. calcoaceticus strain AC001) it was over 64 µg/mL; in [9] (E. coli strain ECO003), 64 µg/mL.
ILKWPWWPWRRK [MBI 11B3CN]: the MIC in [1] (K. pneumoniae strain KP002) is 64 µg/mL; in test [2] (S. aureus strain SA010) it was 4 µg/mL; in test [3] (E. faecalis strain EFS001), 16 µg/mL; in test [4] (E. cloacae strain ECL007) it was over 128 µg/mL; in test [5] (E. faecium strain EFM001) it was 8 µg/mL; in [6] (S. maltophilia strain SMA002), 32 µg/mL. Moreover, the MIC in test [7] (P. aeruginosa strain PA003) is over 128 µg/mL; in [8] (S. marcescens strain SMS004), over 128 µg/mL; in test [10] (A. calcoaceticus strain AC001), 64 µg/mL; in test [9] (E. coli strain ECO002) it was 16 µg/mL.
ILKKWPWWWRK [MBI 11D15CN]: the MIC came to 8 µg/mL in [2] (S. aureus strain SA009), 32 µg/mL in [3] (E. faecalis strain EFS002) and 4 µg/mL in test [5] (E. faecium strain EFM003).
PWWPWRRK [MBI 11D3CN]: the MIC is over 128 µg/mL in [1] (K. pneumoniae strain KP002); 8 µg/mL in test [2] (S. aureus strain SA009); 32 µg/mL in test [3] (E. faecalis strain EFS002); over 128 µg/mL in [4] (E. cloacae strain ECL007); 8 µg/mL in test [5] (E. faecium strain EFM003); 64 µg/mL in test [6] (S. maltophilia strain SMA001). Besides, the MIC in [7] (P. aeruginosa strain PA024) is over 128 µg/mL; in test [8] (S. marcescens strain SMS004), over 128 µg/mL; in [10] (A. calcoaceticus strain AC001), over 128 µg/mL; in [9] (E. coli strain ECO002), 64 µg/mL.
For ILKKWPWWPWRPMILKKAGS [MBI 11D5CN], the MIC was over 64 µg/mL in test [1] (K. pneumoniae strain KP001); 8 µg/mL in test [2] (S. aureus strain SA005); 16 µg/mL in [3] (E. faecalis strain EFS002); over 64 µg/mL in [4] (E. cloacae strain ECL007); 1 µg/mL in [5] (E. faecium strain EFM003); 64 µg/mL in test [6] (S. maltophilia strain SMA001). For the same sequence, the MIC in test [7] (P. aeruginosa strain PA003) was over 64 µg/mL; in test [8] (S. marcescens strain SMS004) it was over 64 µg/mL; in test [10] (A. calcoaceticus strain AC001), over 64 µg/mL; in test [9] (E. coli strain ECO003), 64 µg/mL.
With ILKKWPWWPWRRK [MBI 11], the minimum inhibitory concentration (MIC) in test [1] (K. pneumoniae KP001) is 128 µg/mL; in [2] (S. aureus SA004), 4 µg/mL; in [3] (E. faecalis EFS002), 64 µg/mL; in [4] (E. cloacae ECL007) it was over 128 µg/mL; in [5] (E. faecium EFM003), 4 µg/mL; in test [6] (S. maltophilia SMA002), 128 µg/mL. Besides, the MIC in test [7] (P. aeruginosa PA004) was over 128 µg/mL; in test [8] (S. marcescens SMS004), over 128 µg/mL; in test [10] (A. calcoaceticus AC002), 8 µg/mL; in test [9] (E. coli ECO002), 64 µg/mL.
As for ILRRWPWWPWRK [MBI 11B2CN], the MIC was 64 µg/mL in test [1] (K. pneumoniae strain KP002); 2 µg/mL in test [2] (S. aureus strain SA005); 8 µg/mL in [3] (E. faecalis strain EFS004); over 128 µg/mL in test [4] (E. cloacae strain ECL007); 8 µg/mL in test [5] (E. faecium strain EFM001); 64 µg/mL in test [6] (S. maltophilia strain SMA002). Moreover, the MIC in test [7] (P. aeruginosa strain PA003) is over 128 µg/mL; in test [8] (S. marcescens strain SMS004) it was over 128 µg/mL; in test [10] (A. calcoaceticus strain AC001), 64 µg/mL; in test [9] (E. coli strain ECO003), 16 µg/mL.
ILKKWWWPWRK [MBI 11D14CN]: the MIC was 4 µg/mL in test [2] (S. aureus strain SA009), 32 µg/mL in test [3] (E. faecalis strain EFS002) and 1 µg/mL in [5] (E. faecium strain EFM003).
As to WRWWKPKWRWPKW [MBI 11J02CN], the “Peptide MIC + Ceftriaxone” value came to 32 µg/mL in test [11]; 0.5 µg/mL in test [13] (A. baumannii ABI005); 64 µg/mL in test [13] (B. cepacia BC003); 8 µg/mL in test [13] (E. cloacae ECL014); 8 µg/mL in test [13] (E. cloacae ECL015); 32 µg/mL in test [13] (P. aeruginosa PA008). The “Peptide MIC + Ceftriaxone” value in [13] (P. aeruginosa PA039) is 16 µg/mL; in test [13] (S. aureus SA025 MRSA), 1 µg/mL; in test [13] (S. epidermidis SE012), 1 µg/mL; in [13] (S. epidermidis SE073) it was 1 µg/mL; in [14] (A. baumannii ABI005) it was 0.5 µg/mL; in test [14] (A. lwoffii ALW007), 2 µg/mL. The “Peptide MIC + Ceftriaxone” value in test [14] (B. cepacia BC003) turned out to be 32 µg/mL; in test [14] (E. cloacae ECL014), 16 µg/mL; in test [14] (E. cloacae ECL015) it was 16 µg/mL. Further, the “Peptide MIC Alone” value was 64 µg/mL in test [11] (Ceftriaxone section); 8 µg/mL in test [13] (A. baumannii ABI005); over 128 µg/mL in test [13] (B. cepacia BC003); 32 µg/mL in test [13] (E. cloacae ECL014); 32 µg/mL in test [13] (E. cloacae ECL015); 64 µg/mL in test [13] (P. aeruginosa PA008). For the same sequence, the “Peptide MIC Alone” value is 64 µg/mL in [13] (P. aeruginosa PA039); 2 µg/mL in test [13] (S. aureus SA025 MRSA); 4 µg/mL in test [13] (S. epidermidis SE012); 4 µg/mL in [13] (S. epidermidis SE073); 8 µg/mL in test [14] (A. baumannii ABI005); 4 µg/mL in [14] (A. lwoffii ALW007). Further, the “Peptide MIC Alone” value was over 128 µg/mL in test [14] (B. cepacia BC003), 32 µg/mL in test [14] (E. cloacae ECL014) and 32 µg/mL in test [14] (E. cloacae ECL015). The MIC in test [1] (K. pneumoniae KP001) stood at 4 µg/mL; in test [2] (S. aureus SA014) it was 2 µg/mL; in test [2] (S. aureus SA093), 1 µg/mL; in [3] (E. faecalis EFS001) it was 4 µg/mL; in test [3] (E. faecalis EFS008), 16 µg/mL; in test [4] (E. cloacae ECL007) it was 64 µg/mL. Moreover, the MIC is 8 µg/mL in test [6] (S. maltophilia SMA002); 2 µg/mL in [12]; 32 µg/mL in [7] (P. aeruginosa PA004); over 128 µg/mL in test [8] (S. marcescens SMS003); 4 µg/mL in [10] (A. calcoaceticus AC002); 4 µg/mL in test [9] (E. coli ECO005). Also, the “Ceftriaxone MIC + Peptide” value was determined as 8 µg/mL in test [13] (A. baumannii ABI005); 4 µg/mL in [13] (B. cepacia BC003); 16 µg/mL in [13] (E. cloacae ECL014); 16 µg/mL in test [13] (E. cloacae ECL015); 0.125 µg/mL in test [13] (P. aeruginosa PA008); 16 µg/mL in [13] (P. aeruginosa PA039). The “Ceftriaxone MIC + Peptide” value in test [13] (S. aureus SA025 MRSA) amounted to 0.125 µg/mL; in test [13] (S. epidermidis SE012), 16 µg/mL; in test [13] (S. epidermidis SE073) it was 16 µg/mL; in [14] (A. baumannii ABI005), 8 µg/mL; in [14] (A. lwoffii ALW007) it was 4 µg/mL; in [14] (B. cepacia BC003), 8 µg/mL. Further, the entries for the “Ceftriaxone MIC + Peptide” value in [14] (E. cloacae ECL014) and in [14] (E. cloacae ECL015) were 0.25 µg/mL and 1 µg/mL, respectively. Also, the FIC in [13] (A. baumannii ABI005) came to 0.56; in test [13] (B. cepacia BC003), 0.50; in test [13] (E. cloacae ECL014), 0.38; in [13] (E. cloacae ECL015), 0.50; in [13] (P. aeruginosa PA008), 0.50; in [13] (P. aeruginosa PA039), 0.50. Also, the FIC in test [13] (S. aureus SA025 MRSA) was determined as 0.52; in test [13] (S. epidermidis SE012) it was 0.50; in test [13] (S. epidermidis SE073), 0.38; in [14] (A. baumannii ABI005) it was 0.56; in test [14] (A. lwoffii ALW007), 0.75; in test [14] (B. cepacia BC003), 0.63. Also, the FIC in test [14] (E. cloacae ECL014) is listed as 0.50; in [14] (E. cloacae ECL015) it was 0.52.
Take ILKKNPNNPNRRK [MBI 11M8]: the MIC in test [2] (S. aureus SA008), in test [3] (E. faecalis EFS002) and in test [5] (E. faecium EFM002) was 32 µg/mL in each case.

These data come from patent publication US20020035061A1, “COMPOSITIONS AND METHODS FOR TREATING INFECTIONS USING CATIONIC PEPTIDES ALONE OR IN COMBINATION WITH ANTIBIOTICS” (priority 1996, published 2002).
